{"source": "ChEMBL document CHEMBL5696442", "about": "“Discovery of type II inhibitors of TGFβ-activated kinase 1 (TAK1) and mitogen-activated protein kinase kinase kinase kinase 2 (MAP4K2)” (J Med Chem, 2015)", "key": {"[1]": {"molecular_target": "Cyclin-dependent kinase 13 (Homo sapiens) (UniProt Q14004)", "assay": "Inhibition of CHED Lys2 labeling site harbouring DIKCSNILLNNR in human Huh-7 cells at 1 uM by KiNativ Profiling analysis relative to control", "format": "cell-based"}, "[2]": {"assay": "Inhibition of KHS1 Lys1 labeling site in human Huh-7 cells at 1 uM by KiNativ Profiling analysis relative to control", "conditions": "condition cancer"}, "[3]": {"molecular_target": "Serine/threonine-protein kinase VRK2 (Homo sapiens) (UniProt Q86Y07)", "assay": "Inhibition of VRK2 Lys2 labeling site in human Huh-7 cell lysate at 1 uM by KiNativ Profiling analysis relative to control", "format": "subcellular"}, "[4]": {"molecular_target": "Protein kinase C alpha type (Homo sapiens) (UniProt P17252)", "assay": "Inhibition of PKCa Lys2 labeling site in human Huh-7 cells at 1 uM by KiNativ Profiling analysis relative to control", "format": "cell-based"}, "[5]": {"molecular_target": "Serine/threonine-protein kinase WNK3 (Homo sapiens) (UniProt Q9BYP7)", "sequence (Q9BYP7 whole entry)": "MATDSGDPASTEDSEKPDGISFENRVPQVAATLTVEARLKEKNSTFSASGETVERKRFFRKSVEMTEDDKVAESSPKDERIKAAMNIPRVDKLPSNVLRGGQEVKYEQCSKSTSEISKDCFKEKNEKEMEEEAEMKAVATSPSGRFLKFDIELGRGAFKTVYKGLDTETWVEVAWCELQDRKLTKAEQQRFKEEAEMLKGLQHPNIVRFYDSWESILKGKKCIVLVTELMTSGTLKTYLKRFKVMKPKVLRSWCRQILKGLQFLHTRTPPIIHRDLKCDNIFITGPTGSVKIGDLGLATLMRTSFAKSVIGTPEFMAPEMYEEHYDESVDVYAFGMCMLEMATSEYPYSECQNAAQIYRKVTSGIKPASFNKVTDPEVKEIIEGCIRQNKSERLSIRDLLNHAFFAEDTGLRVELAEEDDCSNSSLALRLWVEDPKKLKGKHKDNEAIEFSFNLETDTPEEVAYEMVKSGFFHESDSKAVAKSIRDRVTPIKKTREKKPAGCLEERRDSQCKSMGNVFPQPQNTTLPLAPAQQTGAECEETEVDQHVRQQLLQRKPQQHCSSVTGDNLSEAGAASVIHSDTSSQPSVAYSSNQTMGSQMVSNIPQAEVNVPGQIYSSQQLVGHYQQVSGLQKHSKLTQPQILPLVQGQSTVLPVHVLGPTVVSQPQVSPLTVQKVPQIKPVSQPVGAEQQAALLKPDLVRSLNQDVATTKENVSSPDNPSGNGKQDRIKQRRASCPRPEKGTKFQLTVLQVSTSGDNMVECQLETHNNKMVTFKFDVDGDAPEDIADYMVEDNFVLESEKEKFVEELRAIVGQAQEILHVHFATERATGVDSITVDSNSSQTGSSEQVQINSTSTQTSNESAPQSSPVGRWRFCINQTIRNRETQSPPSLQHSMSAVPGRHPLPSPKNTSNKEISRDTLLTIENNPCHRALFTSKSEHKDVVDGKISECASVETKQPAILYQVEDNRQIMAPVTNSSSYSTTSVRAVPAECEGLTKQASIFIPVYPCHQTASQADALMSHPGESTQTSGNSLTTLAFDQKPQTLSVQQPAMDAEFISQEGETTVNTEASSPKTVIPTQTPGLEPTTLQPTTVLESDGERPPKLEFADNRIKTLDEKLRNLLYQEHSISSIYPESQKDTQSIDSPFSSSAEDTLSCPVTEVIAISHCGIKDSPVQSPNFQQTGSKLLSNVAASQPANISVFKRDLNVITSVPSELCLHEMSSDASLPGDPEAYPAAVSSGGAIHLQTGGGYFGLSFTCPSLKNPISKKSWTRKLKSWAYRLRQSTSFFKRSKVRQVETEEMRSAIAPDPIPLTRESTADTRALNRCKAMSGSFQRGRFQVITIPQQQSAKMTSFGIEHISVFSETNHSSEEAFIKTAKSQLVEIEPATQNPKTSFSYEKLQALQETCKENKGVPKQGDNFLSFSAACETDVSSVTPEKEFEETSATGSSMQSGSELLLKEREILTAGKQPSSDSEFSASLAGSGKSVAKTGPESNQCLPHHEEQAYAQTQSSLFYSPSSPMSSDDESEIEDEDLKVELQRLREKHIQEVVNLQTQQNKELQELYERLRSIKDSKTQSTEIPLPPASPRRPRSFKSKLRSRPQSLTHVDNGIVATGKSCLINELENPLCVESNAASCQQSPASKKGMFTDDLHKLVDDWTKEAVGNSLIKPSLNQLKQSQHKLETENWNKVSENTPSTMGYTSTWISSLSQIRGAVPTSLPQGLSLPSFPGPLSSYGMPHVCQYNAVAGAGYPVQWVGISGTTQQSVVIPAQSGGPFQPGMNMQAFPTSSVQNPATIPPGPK", "assay": "Inhibition of Wnk3 ACT labeling site in human Huh-7 cell lysate at 1 uM by KiNativ Profiling analysis relative to control", "format": "subcellular"}, "[6]": {"molecular_target": "Cyclin-dependent kinase 17 (Homo sapiens) (UniProt Q00537)", "assay": "Inhibition of PCTAIRE2 PCTAIRE3 Lys1 labeling site in human Huh-7 cell lysate at 1 uM by KiNativ Profiling analysis relative to control", "format": "subcellular"}, "[7]": {"molecular_target": "Activin receptor type-2A (Homo sapiens) (UniProt P27037)", "assay": "Inhibition of ACVR2A (unknown origin) at 1 uM by Ambit Kinomescan binding assay relative to control"}, "[8]": {"molecular_target": "Serine/threonine-protein kinase SIK2 (Homo sapiens) (UniProt Q9H0K1)", "assay": "Inhibition of SIK2 (unknown origin) at 1 uM by Ambit Kinomescan binding assay relative to control"}, "[9]": {"molecular_target": "Wee1-like protein kinase 2 (Homo sapiens) (UniProt P0C1S8)", "assay": "Inhibition of WEE2 (unknown origin) at 1 uM by Ambit Kinomescan binding assay relative to control"}, "[10]": {"molecular_target": "TRAF2 and NCK-interacting protein kinase (Homo sapiens) (UniProt Q9UKE5)", "assay": "Inhibition of TNIK (unknown origin) at 1 uM by Ambit Kinomescan binding assay relative to control"}, "[11]": {"molecular_target": "Casein kinase II subunit alpha' (Homo sapiens) (UniProt P19784)", "sequence (P19784 whole entry, looked up)": "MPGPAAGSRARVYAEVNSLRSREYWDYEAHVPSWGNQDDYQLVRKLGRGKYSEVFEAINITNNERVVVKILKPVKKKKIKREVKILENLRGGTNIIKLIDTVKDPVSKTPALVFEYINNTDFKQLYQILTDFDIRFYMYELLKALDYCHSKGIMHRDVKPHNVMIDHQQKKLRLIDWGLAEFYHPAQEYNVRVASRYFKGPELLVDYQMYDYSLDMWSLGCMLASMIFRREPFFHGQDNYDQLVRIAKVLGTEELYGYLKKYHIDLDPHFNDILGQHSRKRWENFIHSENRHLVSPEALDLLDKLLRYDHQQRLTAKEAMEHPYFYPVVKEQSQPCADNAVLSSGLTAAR", "assay": "Inhibition of CSNK2A2 (unknown origin) at 1 uM by Ambit Kinomescan binding assay relative to control; values are per cent of control"}, "[12]": {"molecular_target": "Serine/threonine-protein kinase PLK1 (Homo sapiens) (UniProt P53350)", "assay": "Inhibition of PLK1 Lys2 labeling site in human A-375 cells at 0.05 uM by KiNativ Profiling analysis relative to control", "format": "cell-based"}, "[13]": {"molecular_target": "Phosphatidylinositol 4-kinase beta (Homo sapiens) (UniProt Q9UBF8)", "sequence (Q9UBF8 2-816 limits assumed)": "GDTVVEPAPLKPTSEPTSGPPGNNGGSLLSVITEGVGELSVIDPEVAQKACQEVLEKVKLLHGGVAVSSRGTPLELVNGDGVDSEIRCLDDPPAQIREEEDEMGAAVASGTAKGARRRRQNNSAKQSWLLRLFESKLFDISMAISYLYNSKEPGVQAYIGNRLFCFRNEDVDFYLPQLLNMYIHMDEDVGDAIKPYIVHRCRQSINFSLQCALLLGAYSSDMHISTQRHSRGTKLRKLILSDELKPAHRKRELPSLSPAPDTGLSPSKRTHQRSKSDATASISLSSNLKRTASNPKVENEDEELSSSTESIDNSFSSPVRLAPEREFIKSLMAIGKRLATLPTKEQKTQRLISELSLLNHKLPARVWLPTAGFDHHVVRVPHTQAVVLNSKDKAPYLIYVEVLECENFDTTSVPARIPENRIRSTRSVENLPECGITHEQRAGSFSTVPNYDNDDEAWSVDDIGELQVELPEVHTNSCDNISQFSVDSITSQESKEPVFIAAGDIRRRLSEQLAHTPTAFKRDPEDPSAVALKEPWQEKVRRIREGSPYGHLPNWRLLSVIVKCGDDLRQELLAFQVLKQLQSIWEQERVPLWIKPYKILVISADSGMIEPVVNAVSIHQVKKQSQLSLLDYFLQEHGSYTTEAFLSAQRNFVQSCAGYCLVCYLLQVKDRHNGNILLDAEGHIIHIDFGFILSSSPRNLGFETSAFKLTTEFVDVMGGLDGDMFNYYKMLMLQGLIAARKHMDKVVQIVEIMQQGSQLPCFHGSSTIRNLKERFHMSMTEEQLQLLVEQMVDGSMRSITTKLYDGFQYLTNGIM", "assay": "Inhibition of PIK4CB (unknown origin) at 1 uM by Ambit Kinomescan binding assay relative to control; values are per cent of control"}, "[14]": {"molecular_target": "Glycogen synthase kinase-3 alpha (Homo sapiens) (UniProt P49840)", "assay": "Inhibition of GSK3A Lys2 labeling site in human A-375 cells at 0.5 uM by KiNativ Profiling analysis relative to control", "format": "cell-based"}, "[15]": {"molecular_target": "Serine/threonine-protein kinase 38 (Homo sapiens) (UniProt Q15208)", "sequence (Q15208 2-465 limits assumed)": "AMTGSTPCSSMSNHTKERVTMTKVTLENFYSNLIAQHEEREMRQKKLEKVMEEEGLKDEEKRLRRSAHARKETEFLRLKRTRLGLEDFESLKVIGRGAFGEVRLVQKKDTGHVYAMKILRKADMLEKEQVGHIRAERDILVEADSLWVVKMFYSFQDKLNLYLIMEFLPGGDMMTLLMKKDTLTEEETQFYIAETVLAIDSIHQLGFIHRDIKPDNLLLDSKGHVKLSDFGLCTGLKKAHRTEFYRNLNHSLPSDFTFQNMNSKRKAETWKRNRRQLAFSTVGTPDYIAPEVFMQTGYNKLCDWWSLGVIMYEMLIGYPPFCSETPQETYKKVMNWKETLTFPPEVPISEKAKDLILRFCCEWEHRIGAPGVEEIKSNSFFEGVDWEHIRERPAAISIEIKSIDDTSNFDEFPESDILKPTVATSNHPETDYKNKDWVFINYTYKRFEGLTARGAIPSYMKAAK", "assay": "Inhibition of NDR1 K1 labeling site in human Huh-7 cells at 1 uM by KiNativ Profiling analysis relative to control", "format": "cell-based"}, "[16]": {"molecular_target": "cGMP-dependent protein kinase 1 (Homo sapiens) (UniProt Q13976)", "sequence (Q13976 whole entry)": "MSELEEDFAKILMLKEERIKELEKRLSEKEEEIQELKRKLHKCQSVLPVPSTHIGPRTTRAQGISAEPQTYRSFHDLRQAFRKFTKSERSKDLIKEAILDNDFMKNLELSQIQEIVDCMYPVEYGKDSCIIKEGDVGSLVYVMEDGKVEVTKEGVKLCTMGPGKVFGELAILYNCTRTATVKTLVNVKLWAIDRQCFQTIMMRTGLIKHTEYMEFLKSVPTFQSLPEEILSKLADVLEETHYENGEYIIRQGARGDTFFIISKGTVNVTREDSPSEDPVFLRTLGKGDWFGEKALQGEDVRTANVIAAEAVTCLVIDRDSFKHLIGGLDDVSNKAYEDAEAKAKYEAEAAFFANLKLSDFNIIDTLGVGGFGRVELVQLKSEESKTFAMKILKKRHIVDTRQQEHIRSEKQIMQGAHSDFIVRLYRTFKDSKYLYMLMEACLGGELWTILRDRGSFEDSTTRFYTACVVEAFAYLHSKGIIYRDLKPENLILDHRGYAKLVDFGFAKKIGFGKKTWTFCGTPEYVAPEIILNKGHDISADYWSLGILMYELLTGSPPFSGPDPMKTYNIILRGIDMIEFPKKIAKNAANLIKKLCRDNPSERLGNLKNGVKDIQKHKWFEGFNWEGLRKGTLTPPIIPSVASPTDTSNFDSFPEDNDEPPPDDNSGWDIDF", "assay": "Inhibition of PRKG1 (unknown origin) at 10 uM by Ambit Kinomescan binding assay"}, "[17]": {"assay": "Inhibition of MARK2/3 K2 labeling site in human Huh-7 cells at 1 uM by KiNativ Profiling analysis relative to control", "conditions": "condition cancer"}, "[18]": {"molecular_target": "Serine/threonine-protein kinase 24 (Homo sapiens) (UniProt Q9Y6E0)", "assay": "Inhibition of MST3 K2 labeling site harbouring DIKAANVLLSEHGEVK in human Huh-7 cells at 1 uM by KiNativ Profiling analysis relative to control", "format": "cell-based"}, "[19]": {"molecular_target": "Tyrosine-protein kinase Fyn (Homo sapiens) (UniProt P06241)", "assay": "Inhibition of FYN ACT labeling site in human Huh-7 cells at 1 uM by KiNativ Profiling analysis relative to control", "format": "cell-based"}, "[20]": {"molecular_target": "Activin receptor type-2B (Homo sapiens) (UniProt Q13705)", "assay": "Inhibition of ACVR2B (unknown origin) at 10 uM by Ambit Kinomescan binding assay"}, "[21]": {"molecular_target": "Tyrosine-protein kinase CSK (Homo sapiens, UniProt P41240)", "assay": "Inhibition of CSK ACT labeling site harbouring VSDFGLTKEASSTQDTGK in human A-375 cells at 0.5 uM by KiNativ Profiling analysis relative to control", "format": "cell-based"}, "[22]": {"molecular_target": "Serine/threonine-protein kinase 38 (Homo sapiens) (UniProt Q15208)", "assay": "Inhibition of NDR1 ACT labeling site in human A-375 cells at 0.5 uM by KiNativ Profiling analysis relative to control", "format": "cell-based"}, "[23]": {"molecular_target": "T1, Scaffold protein ILK (Homo sapiens) (UniProt Q13418)", "T1 sequence (whole entry)": "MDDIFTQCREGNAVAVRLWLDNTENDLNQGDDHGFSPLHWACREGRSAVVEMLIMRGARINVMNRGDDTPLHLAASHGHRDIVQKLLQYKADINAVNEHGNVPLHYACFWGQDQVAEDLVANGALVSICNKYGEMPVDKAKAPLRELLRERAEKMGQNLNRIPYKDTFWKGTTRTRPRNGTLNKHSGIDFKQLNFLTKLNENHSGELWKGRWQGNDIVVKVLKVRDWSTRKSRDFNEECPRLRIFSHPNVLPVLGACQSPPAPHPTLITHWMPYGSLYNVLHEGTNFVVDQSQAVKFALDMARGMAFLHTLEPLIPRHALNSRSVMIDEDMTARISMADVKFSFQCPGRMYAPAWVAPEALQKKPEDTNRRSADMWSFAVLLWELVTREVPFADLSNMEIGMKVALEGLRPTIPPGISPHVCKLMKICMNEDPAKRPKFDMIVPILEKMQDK", "assay": "Inhibition of ILK K1 labeling site in human Huh-7 cells at 10 uM by KiNativ Profiling analysis relative to control", "format": "cell-based"}, "[24]": {"molecular_target": "Ribosomal protein S6 kinase alpha-3 (Homo sapiens) (UniProt P51812)", "sequence (P51812 whole entry, the tested form may be a part)": "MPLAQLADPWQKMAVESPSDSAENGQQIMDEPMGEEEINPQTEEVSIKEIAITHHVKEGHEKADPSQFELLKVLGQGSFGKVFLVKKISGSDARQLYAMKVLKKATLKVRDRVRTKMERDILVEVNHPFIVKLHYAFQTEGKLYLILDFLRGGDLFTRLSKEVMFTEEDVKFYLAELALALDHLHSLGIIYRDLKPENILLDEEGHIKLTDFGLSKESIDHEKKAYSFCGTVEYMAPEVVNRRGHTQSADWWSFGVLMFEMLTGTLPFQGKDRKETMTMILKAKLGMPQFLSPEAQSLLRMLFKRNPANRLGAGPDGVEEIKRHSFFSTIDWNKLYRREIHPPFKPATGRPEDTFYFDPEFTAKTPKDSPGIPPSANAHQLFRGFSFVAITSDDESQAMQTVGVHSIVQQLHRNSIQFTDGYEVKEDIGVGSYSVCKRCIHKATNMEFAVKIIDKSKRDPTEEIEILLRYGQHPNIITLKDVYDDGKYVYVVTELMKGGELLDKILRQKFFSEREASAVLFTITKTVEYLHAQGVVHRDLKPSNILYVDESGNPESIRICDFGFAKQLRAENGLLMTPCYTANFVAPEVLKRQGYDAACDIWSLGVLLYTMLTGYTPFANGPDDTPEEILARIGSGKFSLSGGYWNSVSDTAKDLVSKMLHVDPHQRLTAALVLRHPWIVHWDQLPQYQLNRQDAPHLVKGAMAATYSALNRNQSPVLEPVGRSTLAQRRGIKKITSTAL", "assay": "Inhibition of RSK2 Domain 1 ACT labeling site harbouring LTDFGLSKESIDHEK in human Huh-7 cells at 10 uM by KiNativ Profiling analysis relative to control", "format": "cell-based"}, "[25]": {"molecular_target": "Ribosomal protein S6 kinase alpha-6 (Homo sapiens) (UniProt Q9UK32)", "assay": "Inhibition of N-terminal RPS6KA6 kinase domain 1 (unknown origin) at 10 uM by Ambit Kinomescan binding assay"}, "[26]": {"molecular_target": "Ribosomal protein S6 kinase alpha-1 (Homo sapiens) (UniProt Q15418)", "assay": "Inhibition of RSK1 domain1 Lys1 labeling site in human A-375 cells at 0.5 uM by KiNativ Profiling analysis relative to control", "format": "cell-based"}, "[27]": {"molecular_target": "Calcium/calmodulin-dependent protein kinase type II subunit gamma (Homo sapiens) (UniProt Q13555)", "assay": "Inhibition of CAMK2G (unknown origin) at 10 uM by Ambit Kinomescan binding assay"}}, "note": "Active and inactive are the calls of the source. The rule behind the calls is not given here.", "data": [{"smiles": "CNc1cc(Oc2cc(C(=O)Nc3cc(N4CCN(C)CC4)cc(C(F)(F)F)c3)ccc2C)ncn1", "values": [{"measurement": "inhibition", "setting": "[1]", "result": 38.1, "unit": "%"}, {"measurement": "inhibition at 1 µM", "setting": "[2]", "result": -10.3, "unit": "%"}, {"measurement": "inhibition", "setting": "[3]", "result": -0.9, "unit": "%"}, {"measurement": "inhibition", "setting": "[4]", "result": 64.8, "unit": "%"}, {"measurement": "inhibition", "setting": "[5]", "result": -6.9, "unit": "%"}, {"measurement": "inhibition", "setting": "[6]", "result": -9.5, "unit": "%"}]}, {"smiles": "CCN1CCN(Cc2ccc(NC(=O)c3ccc(C)c(/C=C/c4cnc5[nH]ccc5c4OC)c3)cc2C(F)(F)F)CC1", "values": [{"measurement": "inhibition", "setting": "[7]", "result": 100, "unit": "%"}, {"measurement": "inhibition", "setting": "[8]", "result": 26, "unit": "%"}, {"measurement": "inhibition", "setting": "[9]", "result": 74, "unit": "%"}, {"measurement": "inhibition", "setting": "[10]", "result": 14, "unit": "%"}, {"measurement": "residual activity", "setting": "[11]", "result": 77, "unit": "%"}, {"measurement": "inhibition", "setting": "[12]", "result": 1.3, "unit": "%"}, {"measurement": "residual activity", "setting": "[13]", "result": 100, "unit": "%"}, {"measurement": "inhibition", "setting": "[14]", "result": 11.4, "unit": "%"}]}, {"smiles": "CCN1CCN(Cc2ccc(NC(=O)c3ccc(C)c(Oc4ccnc5[nH]ccc45)c3)cc2C(F)(F)F)CC1", "values": [{"measurement": "inhibition", "setting": "[15]", "result": 4.4, "unit": "%"}, {"measurement": "inhibition", "setting": "[16]", "result": "inactive"}, {"measurement": "inhibition at 1 µM", "setting": "[17]", "result": -5.3, "unit": "%"}, {"measurement": "inhibition", "setting": "[18]", "result": -7.8, "unit": "%"}, {"measurement": "inhibition", "setting": "[19]", "result": -0.3, "unit": "%"}, {"measurement": "inhibition", "setting": "[20]", "result": "inactive"}, {"measurement": "inhibition", "setting": "[21]", "result": 49.8, "unit": "%"}, {"measurement": "inhibition", "setting": "[22]", "result": -4.5, "unit": "%"}, {"measurement": "inhibition", "setting": "[23]", "result": -5.7, "unit": "%"}, {"measurement": "inhibition", "setting": "[24]", "result": -1.5, "unit": "%"}, {"measurement": "inhibition", "setting": "[25]", "result": "inactive"}, {"measurement": "inhibition", "setting": "[26]", "result": -0.7, "unit": "%"}, {"measurement": "inhibition", "setting": "[27]", "result": "inactive"}]}]}
